Laboratory results from patent publication US10058608B2, “Compositions of vaccines and adjuvants and methods for the treatment of urinary tract infections” (priority 2013, dated 2018).

Assay: Forced degradation studies by TOF-MS
Format: physicochemical
Settings: 0.5 mg/ml in potassium citrate, pH 8.1, 37° C.
Description: 0.5 mg/ml of PHAD was prepared in potassium citrate, pH 8.1 and stored at 37° C. pH 8.1 is outside the preferred ranges of the invention and induces degradation. Samples were prepared for analysis by the addition of 200 μL of CHCl3, 200 μL of methanol, and 100 μL of ammonium acetate in 80:20 methanol/water. After mixing the bottom layer was transferred and diluted with 100 μL of methanol. Samples were analyzed by electrospray time-of-flight (TOF) mass spectrometry (MS) in negative mode via direct infusion. […] In addition, those skilled in the art understand that various adduct ions may occur during each analysis from day to day. Therefore, molecular formulas are based upon the ions observed considering error of the system day to day. […] By Days 1, 7, 13, and 20 significant ions appear at 1309 and 1519 and continue to increase from Day 1 to Day 20. The MS ion at 1309 represents a loss of two acyl groups (molecular formula is C28H53O3; 437 Daltons) and the MS ion at 1519 represents a loss of a single acyl group (molecular formula is C14H27O2; 227 Daltons) from the diglucosamine scaffold. By Day 7, the mass intensity of the 1519 ion had increased to 46% of the mass intensity of the 1745 mass ion. On Day 0 the mass intensity of the 1519 ion was 4% of that of the 1745 mass ion.
0.5 mg/ml of 3-deacyl-phosphorylated hexaacyl disaccharide was prepared in potassium citrate, pH 8.1 and stored at 37° C. All preparation and analysis were conducted as listed in experiment 1. […] By Days 1, 13, and 22 a significant ion appeared at 1084 and continued to increase from Day 1 to Day 22. The MS ion at 1084 represents a loss of two acyl groups (molecular formula is C28H53O3; 437 Daltons) from the diglucosamine scaffold. By Day 13 the intensity of the 1084 mass ion had increased to 24% of the intensity of the 1521 mass ion. On Day 0 the intensity of the 1084 mass ion was 3% of the intensity of the 1521 mass ion. […] Phosphorylated hexaacyl disaccharide and 3-deacyl phosphorylated hexaacyl disaccharide primarily degrade by losing acyl groups. The formulations of the invention prevent the loss of these acyl groups.
Because it was both pure and abundant, the pentaacyl MLA component was chosen for examination of its degradation mechanism. […] The degradation experiment was conducted in PBS, pH 7.4 and stored at 37° C. This saline buffer system was selected because the use of saline is outside the preferred embodiments of the invention.

Substance | intensity of the 1084 mass ion relative to the 1521 mass ion (Day 0) [%] | intensity of the 1084 mass ion relative to the 1521 mass ion (Day 13) [%] | mass intensity of the 1519 ion relative to the 1745 mass ion (Day 0) [%] | mass intensity of the 1519 ion relative to the 1745 mass ion (Day 7) [%]
3-deacyl-phosphorylated hexaacyl disaccharide | 3 | 24 | – | –
phosphorylated hexaacyl disaccharide [PHAD] | – | – | 4 | 46
